From patent US20260021108A1, “USE OF INHIBITORS OF THE HIPPO SIGNALLING PATHWAY FOR THE TREATMENT OF CHRONIC NEPHROPATHIES” (INSTITUT NATIONAL DE LA SANTÉ ET DE LA RECHERCHE MÉDICALE, priority 2022, published 2026)

Tests used:
MDCK renal cells [1] = assay: Ccl2 and Cxcl10 mRNA response to UPEC in confluent MDCK cells; assay type: cell-based, Dog; settings: 6 hours, n=5
Description: (§1) Uropathogen E. coli (UTI89 strain, UPEC) bacteria strains were grown as previously described (Zychlinsky Scharff et al., 2019). Inactivation of bacteria was performed on bacteria resuspended at a concentration of 109/ml in PBS and heated at 60° C. for one hour.
Madin-Darby canine kidney cells (MDCK, kind gift from Prof. Kai Simons, MPI-CBG, Dresden, Germany) were cultured using DMEM (GIBCO, 41966-029) supplemented with 10% FBS (GIBCO, 10270-106) and 1% penicillin-streptomycin (GIBCO, 15140-122). A total of 200,000 cells/cm^2 were seeded for 10 days on 12 well plate (Corning, 353043). Confluent MDCK cells were stimulated for 6 hours with 5 μM XMU-MP-1 (Selleckchem, S8334) or 0.04% DMSO. […]
(§2) Total RNAs were obtained from cells using RNeasy Mini Kit (Qiagen) and reverse transcribed using High Capacity cDNA Reverse Transcription Kit (Applied Biosystems) according to the manufacturer's protocol. Quantitative PCR were performed with iTaq™ Universal SYBR® Green Supermix (Bio-Rad) on a CFX384 C1000 Touch (Bio-Rad). […] Each biological replicate was measured in technical duplicates.
(§3) Data are expressed as means+/−standard deviation. Differences between groups were evaluated using unpaired t test when only 2 groups were evaluated or one-way ANOVA followed, when significant (P<0.05), by the Tukey-Kramer test. […]

mIMCD-3 renal cells [2] = assay: NPH-cytokine signature mRNA abundance (qRT-PCR) in confluent mIMCD-3 cells; assay type: cell-based, Mouse; settings: n=3
Description: Mouse inner medullary collecting duct (mIMCD-3) cells were grown in DMEM/F-12 (1:1, GIBCO, 21331-020) supplemented with 10% FBS, 1% penicillin-streptomycin and 2 mM L-Glutamine (GIBCO, 25030-024). A total of 50,000 cells/cm^2 were seeded for 3 days on 12 well plate. Confluent mIMCD-3 cells were stimulated with 5 μM XMUMP-1 (Selleckchem, S8334), or 10 μM Lats-IN-1 (MedChemExpress, HY-138489) or 0.04% DMSO. For bacteria experiment, mIMCD-3 cells were starved overnight prior stimulation and then stimulated for 6 hours with 5 μM XMU-MP-1 or 0.04% DMSO with or without 1.108/mL UPEC.
(§4) Total RNAs were obtained from cells using RNeasy Mini Kit (Qiagen) and reverse transcribed using High Capacity cDNA Reverse Transcription Kit (Applied Biosystems) according to the manufacturer's protocol. Quantitative PCR were performed with iTaq™ Universal SYBR® Green Supermix (Bio-Rad) on a CFX384 C1000 Touch (Bio-Rad). Hprt, Sdha, Gapdh and Ppia were used as normalization controls. Each biological replicate was measured in technical duplicates.
Data are expressed as means+/−standard deviation. Differences between groups were evaluated using unpaired t test when only 2 groups were evaluated or one-way ANOVA followed, when significant (P<0.05), by the Tukey-Kramer test. The statistical analysis was performed using GraphPad Prism V8 software.

MDCK renal cells [3] = assay: NPH-cytokine signature mRNA abundance (qRT-PCR) in confluent MDCK cells; assay type: cell-based, Dog; settings: 5 μM XMU-MP-1, 6 hours, n=3-6
Description: Madin-Darby canine kidney cells (MDCK, kind gift from Prof. Kai Simons, MPI-CBG, Dresden, Germany) were cultured using DMEM (GIBCO, 41966-029) supplemented with 10% FBS (GIBCO, 10270-106) and 1% penicillin-streptomycin (GIBCO, 15140-122). A total of 200,000 cells/cm^2 were seeded for 10 days on 12 well plate (Corning, 353043). Confluent MDCK cells were stimulated for 6 hours with 5 μM XMU-MP-1 (Selleckchem, S8334) or 0.04% DMSO. For bacteria experiment, MDCK cells were starved overnight prior stimulation and then stimulated for 6 hours with 5 μM XMU-MP-1 or 10 μM Lats-IN-1 (MedChemExpress, HY-138489) with or without 1.108/mL UPEC. All cells were regularly tested for mycoplasma contamination and were mycoplasma-free.
as §4, §3

mIMCD-3 renal cells [4] = assay: Inflammatory cytokine mRNA response to heat inactivated uropathogenic Escherichia coli (UPEC) in mIMCD-3 cells; assay type: cell-based, Mouse; settings: confluent mIMCD-3 cells, 5 μM XMU-MP-1 and heat inactivated UPEC, 6 hours, n=7-10
Description: as §1
Mouse inner medullary collecting duct (mIMCD-3) cells were grown in DMEM/F-12 (1:1, GIBCO, 21331-020) supplemented with 10% FBS, 1% penicillin-streptomycin and 2 mM L-Glutamine (GIBCO, 25030-024). A total of 50,000 cells/cm^2 were seeded for 3 days on 12 well plate. Confluent mIMCD-3 cells were stimulated with 5 μM XMUMP-1 (Selleckchem, S8334), or 10 μM Lats-IN-1 (MedChemExpress, HY-138489) or 0.04% DMSO. […]
as §2, §3

Row | SMILES | inflammatory response to bacteria (Ccl2 and Cxcl10 mRNA abundance) (MDCK renal cells [1]; 10 μM Lats-IN-1 and UPEC) | NPH-cytokine signature (Ctgf, Cyr61, Ccl2, Ccl5, Cx3cl1, Cxcl1, Cxcl10, Cxcl16, Cxcl17, Il1rn, Il33, Il34, Lgals9 mRNA abundance) (mIMCD-3 renal cells [2]; 10 μM Lats-IN-1, 6 hours) | NPH-cytokine signature (Ctgf, Cyr61, Ccl2, Ccl5, Cx3cl1, Cxcl10, Cxcl16, Cxcl17, Il1rn, Il34 mRNA abundance) (MDCK renal cells [3]) | inflammatory response to bacteria (Ccl2 and Cxcl10 mRNA abundance) (MDCK renal cells [1]; 5 μM XMU-MP-1 and UPEC) | NPH-cytokine signature (Ctgf, Cyr61, Ccl2, Ccl5, Cx3cl1, Cxcl1, Cxcl10, Cxcl16, Cxcl17, Il1rn, Il33, Il34, Lgals9 mRNA abundance) (mIMCD-3 renal cells [2]; 5 μM XMU-MP-1, 6 hours) | inflammatory response to uropathogenic bacteria (cytokine mRNA abundance) (mIMCD-3 renal cells [4])
1 | O=C(N=c1sccn1Cc1ccccc1)c1c[nH]c2ncccc12 [Lats-IN-1, N-(3-benzylthiazol-2(3H)-ylidene)-1H-pyrrolo[2,3-b]pyridine-3-carboxamide] | reduces NPH-cytokine signature and inflammatory response to bacteria | suppresses partially NPH-cytokine signature |  |  |  | 
2 | CN1C(=O)c2sccc2N(C)c2nc(Nc3ccc(S(N)(=O)=O)cc3)ncc21 [XMU-MP-1, 4-[(6, 10-Dihydro-5, 10-dimethyl-6-oxo-5H-pyrimido[5,4-b]thieno[3,2-e][1,4]diazepin-2-yl)amino]benzenesulfonamide] |  |  | reduces NPH-cytokine signature | reduces NPH-cytokine signature and inflammatory response to bacteria | suppresses NPH-cytokine signature | blunts inflammatory response to uropathogenic bacteria
